Laboratory results reported in ChEMBL document CHEMBL5058649, “Data for DCP probe BAY 1816032” (2022).

Assays:
[1] = biological target: Wee1-like protein kinase 2 (Homo sapiens) (UniProt P0C1S8); test: WEE2 DiscoveRx kinase panel; settings: Compound concentration 1.0 uM
[2] = biological target: Cyclin-dependent kinase 4 (Homo sapiens) (UniProt P11802); test: CDK4 DiscoveRx kinase panel; settings: Compound concentration 1.0 uM
[3] = biological target: Kappa-type opioid receptor (Homo sapiens) (UniProt P41145); settings: Compound concentration 10.0 uM
[4] = biological target: Ephrin type-A receptor 5 (Homo sapiens) (UniProt P54756); test: EPHA5 DiscoveRx kinase panel; settings: Compound concentration 1.0 uM
[5] = biological target: Cyclin-dependent kinase-like 2 (Homo sapiens) (UniProt Q92772); test: CDKL2 DiscoveRx kinase panel; settings: Compound concentration 1.0 uM
[6] = biological target: Phosphatidylinositol 4-kinase beta (Homo sapiens) (UniProt Q9UBF8); test: PIK4CB DiscoveRx kinase panel; settings: Compound concentration 1.0 uM
[7] = biological target: Misshapen-like kinase 1 (Homo sapiens) (UniProt Q8N4C8); test: MINK DiscoveRx kinase panel; settings: Compound concentration 1.0 uM
[8] = biological target: Serine/threonine-protein kinase WNK2 (Homo sapiens) (UniProt Q9Y3S1); test: WNK2 DiscoveRx kinase panel; settings: Compound concentration 1.0 uM
[9] = biological target: Cyclin-dependent kinase-like 5 (Homo sapiens) (UniProt O76039); test: CDKL5 DiscoveRx kinase panel; settings: Compound concentration 1.0 uM
[10] = biological target: G protein-coupled receptor kinase 4 (Homo sapiens) (UniProt P32298); test: GRK4 DiscoveRx kinase panel; settings: Compound concentration 1.0 uM
[11] = biological target: Type-1 angiotensin II receptor (Homo sapiens) (UniProt P30556); test: Angiotensin AT1 Eurofins-Panlabs radioligand binding assay; settings: Compound concentration 10.0 uM
[12] = biological target: Myotonin-protein kinase (Homo sapiens) (UniProt Q09013); test: DMPK DiscoveRx kinase panel; settings: Compound concentration 1.0 uM
[13] = biological target: 5-hydroxytryptamine receptor 2C (Homo sapiens) (UniProt P28335); settings: Compound concentration 10.0 uM
[14] = biological target: Serine/threonine-protein kinase 17B (Homo sapiens) (UniProt O94768); test: DRAK2 DiscoveRx kinase panel; settings: Compound concentration 1.0 uM
Chain of Serine/threonine-protein kinase 17B (Homo sapiens) (O94768 whole entry): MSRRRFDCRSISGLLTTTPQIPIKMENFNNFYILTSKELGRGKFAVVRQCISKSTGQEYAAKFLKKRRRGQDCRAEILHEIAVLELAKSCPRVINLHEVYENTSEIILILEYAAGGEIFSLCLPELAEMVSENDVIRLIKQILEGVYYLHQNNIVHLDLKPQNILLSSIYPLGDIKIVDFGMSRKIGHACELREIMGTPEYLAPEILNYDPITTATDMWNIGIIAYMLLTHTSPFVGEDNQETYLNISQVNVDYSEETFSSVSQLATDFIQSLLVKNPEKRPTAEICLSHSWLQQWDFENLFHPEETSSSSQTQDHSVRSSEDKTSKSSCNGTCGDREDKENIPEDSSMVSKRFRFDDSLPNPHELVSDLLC

[15] = biological target: Tyrosine-protein kinase TXK (Homo sapiens) (UniProt P42681); test: TXK DiscoveRx kinase panel; settings: Compound concentration 1.0 uM
[16] = biological target: Melanocortin receptor 4 (Homo sapiens) (UniProt P32245); test: Melanocortin MC4 Eurofins-Panlabs radioligand binding assay; settings: Compound concentration 10.0 uM
Chain of Melanocortin receptor 4 (Homo sapiens) (P32245 whole entry): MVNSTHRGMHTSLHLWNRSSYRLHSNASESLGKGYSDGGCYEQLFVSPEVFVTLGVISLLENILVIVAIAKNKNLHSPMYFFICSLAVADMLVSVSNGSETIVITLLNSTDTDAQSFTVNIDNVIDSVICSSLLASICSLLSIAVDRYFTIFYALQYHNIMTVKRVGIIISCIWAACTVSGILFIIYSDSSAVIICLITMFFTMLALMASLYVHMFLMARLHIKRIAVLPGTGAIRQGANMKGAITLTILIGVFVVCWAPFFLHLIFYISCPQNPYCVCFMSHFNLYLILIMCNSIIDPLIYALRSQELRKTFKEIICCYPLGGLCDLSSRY

[17] = biological target: Glutamate receptor ionotropic, kainate (Rattus norvegicus) (UniProt P22756+Q01812+P42260+P42264+Q63273); test: Inhibition of Glutamate, Kainate at 10 µM in the Eurofins-Panlabs radioligand binding assay (Eurofins_assay_232700); settings: Compound concentration 10.0 uM
[18] = biological target: Vascular endothelial growth factor receptor 2 (Homo sapiens) (UniProt P35968); test: VEGFR2 DiscoveRx kinase panel; settings: Compound concentration 1.0 uM
[19] = biological target: Macrophage colony-stimulating factor 1 receptor (Homo sapiens) (UniProt P07333); test: CSF1R DiscoveRx kinase panel; settings: Compound concentration 1.0 uM
[20] = biological target: Phosphodiesterase 3 (Homo sapiens) (UniProt Q14432+Q13370); test: Inhibition of Phosphodiesterase PDE3 at compound concentration of 10.0 uM in the Eurofins-Panlabs enzyme assay (Eurofins_assay_152000); format: protein assay; parameters: substrate with concentration 1.01 uM [3H] cAMP + cAMP, incubation time 20 min, incubation temperature 25 C; settings: Compound concentration 10.0 uM
[21] = biological target: Beta-2 adrenergic receptor (Homo sapiens) (UniProt P07550); settings: Compound concentration 10.0 uM
[22] = biological target: Serine/threonine-protein kinase tousled-like 2 (Homo sapiens) (UniProt Q86UE8); test: TLK2 DiscoveRx kinase panel; settings: Compound concentration 1.0 uM
[23] = biological target: Serine/threonine-protein kinase Nek1 (Homo sapiens) (UniProt Q96PY6); test: NEK1 DiscoveRx kinase panel; settings: Compound concentration 1.0 uM
Chain of Serine/threonine-protein kinase Nek1 (Homo sapiens) (Q96PY6 whole entry): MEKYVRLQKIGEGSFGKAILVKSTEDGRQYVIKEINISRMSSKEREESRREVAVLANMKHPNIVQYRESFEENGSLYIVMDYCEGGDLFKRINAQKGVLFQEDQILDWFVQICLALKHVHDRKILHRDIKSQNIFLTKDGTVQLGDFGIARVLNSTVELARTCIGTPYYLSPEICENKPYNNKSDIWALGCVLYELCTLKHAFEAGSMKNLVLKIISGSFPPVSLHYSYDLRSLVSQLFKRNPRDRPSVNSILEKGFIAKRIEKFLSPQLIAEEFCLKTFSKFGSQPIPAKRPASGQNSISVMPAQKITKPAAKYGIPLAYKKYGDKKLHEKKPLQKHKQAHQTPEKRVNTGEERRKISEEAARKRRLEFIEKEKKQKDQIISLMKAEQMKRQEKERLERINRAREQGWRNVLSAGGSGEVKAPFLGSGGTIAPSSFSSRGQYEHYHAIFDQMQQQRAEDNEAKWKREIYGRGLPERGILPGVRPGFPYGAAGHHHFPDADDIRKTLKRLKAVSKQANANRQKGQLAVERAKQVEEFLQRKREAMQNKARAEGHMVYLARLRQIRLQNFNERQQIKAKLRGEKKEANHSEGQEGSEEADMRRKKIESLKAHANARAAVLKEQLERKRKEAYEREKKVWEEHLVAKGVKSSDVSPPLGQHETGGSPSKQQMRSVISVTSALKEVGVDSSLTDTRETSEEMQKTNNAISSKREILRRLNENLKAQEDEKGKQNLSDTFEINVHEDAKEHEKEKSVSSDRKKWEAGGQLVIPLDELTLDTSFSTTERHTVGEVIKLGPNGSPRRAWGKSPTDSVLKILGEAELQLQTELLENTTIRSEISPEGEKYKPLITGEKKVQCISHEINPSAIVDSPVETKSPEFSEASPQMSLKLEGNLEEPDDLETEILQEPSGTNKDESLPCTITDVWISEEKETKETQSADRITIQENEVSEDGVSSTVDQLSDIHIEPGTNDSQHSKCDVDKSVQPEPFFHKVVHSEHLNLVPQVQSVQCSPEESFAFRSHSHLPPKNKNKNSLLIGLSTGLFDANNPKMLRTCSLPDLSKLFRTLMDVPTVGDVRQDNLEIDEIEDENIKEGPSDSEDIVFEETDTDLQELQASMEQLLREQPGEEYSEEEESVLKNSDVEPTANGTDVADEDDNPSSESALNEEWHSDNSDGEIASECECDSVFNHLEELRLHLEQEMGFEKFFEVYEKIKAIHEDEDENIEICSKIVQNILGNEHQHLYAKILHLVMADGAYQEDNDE

[24] = biological target: Serine/threonine-protein kinase 24 (Homo sapiens) (UniProt Q9Y6E0); test: MST3 DiscoveRx kinase panel; settings: Compound concentration 1.0 uM
Chain of Serine/threonine-protein kinase 24 (Homo sapiens) (Q9Y6E0 whole entry, looked up): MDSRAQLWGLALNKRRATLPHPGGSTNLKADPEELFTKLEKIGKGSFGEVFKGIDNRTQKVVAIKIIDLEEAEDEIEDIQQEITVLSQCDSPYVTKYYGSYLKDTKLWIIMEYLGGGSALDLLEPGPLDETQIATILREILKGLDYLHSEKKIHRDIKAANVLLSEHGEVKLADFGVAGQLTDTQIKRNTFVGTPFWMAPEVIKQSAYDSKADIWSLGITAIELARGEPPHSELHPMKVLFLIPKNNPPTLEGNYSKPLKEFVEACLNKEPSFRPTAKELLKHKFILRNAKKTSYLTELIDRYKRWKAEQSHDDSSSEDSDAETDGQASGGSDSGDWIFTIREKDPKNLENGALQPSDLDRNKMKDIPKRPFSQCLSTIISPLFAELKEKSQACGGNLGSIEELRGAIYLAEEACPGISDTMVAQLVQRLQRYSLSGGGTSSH

[25] = biological target: Uncharacterized serine/threonine-protein kinase SBK3 (Homo sapiens) (UniProt P0C264); test: SgK110 DiscoveRx kinase panel; settings: Compound concentration 1.0 uM
[26] = biological target: Serine/threonine-protein kinase tousled-like 1 (Homo sapiens) (UniProt Q9UKI8); test: TLK1 DiscoveRx kinase panel; settings: Compound concentration 1.0 uM
Chain of Serine/threonine-protein kinase tousled-like 1 (Homo sapiens) (Q9UKI8 whole entry): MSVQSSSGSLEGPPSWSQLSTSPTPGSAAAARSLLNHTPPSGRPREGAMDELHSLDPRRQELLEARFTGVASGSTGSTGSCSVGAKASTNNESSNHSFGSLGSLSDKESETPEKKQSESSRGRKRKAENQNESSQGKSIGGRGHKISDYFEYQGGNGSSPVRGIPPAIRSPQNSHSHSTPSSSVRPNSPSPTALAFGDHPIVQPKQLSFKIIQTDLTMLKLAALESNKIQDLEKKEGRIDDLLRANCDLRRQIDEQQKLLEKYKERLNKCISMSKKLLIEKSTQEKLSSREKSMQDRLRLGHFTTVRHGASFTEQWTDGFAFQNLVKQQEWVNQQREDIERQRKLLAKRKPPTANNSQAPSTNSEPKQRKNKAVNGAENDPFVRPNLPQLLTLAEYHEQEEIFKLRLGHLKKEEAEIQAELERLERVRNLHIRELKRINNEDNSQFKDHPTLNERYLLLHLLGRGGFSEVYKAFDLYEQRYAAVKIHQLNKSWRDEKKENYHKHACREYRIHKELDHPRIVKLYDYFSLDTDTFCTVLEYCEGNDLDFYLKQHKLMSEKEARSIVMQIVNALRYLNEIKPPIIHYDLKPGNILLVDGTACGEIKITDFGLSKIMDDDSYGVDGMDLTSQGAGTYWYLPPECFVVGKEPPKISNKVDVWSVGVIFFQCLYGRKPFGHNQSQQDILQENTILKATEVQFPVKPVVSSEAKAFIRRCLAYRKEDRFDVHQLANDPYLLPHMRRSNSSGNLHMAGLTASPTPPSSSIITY

[27] = biological target: D(4) dopamine receptor (Homo sapiens) (UniProt P21917); settings: Compound concentration 10.0 uM
Rattus norvegicus = organism: Rattus norvegicus; settings: Compound concentration 10.0 uM
[28] = biological target: Ribosomal protein S6 kinase alpha-1 (Homo sapiens) (UniProt Q15418); test: RSK1(Kin.Dom.2-C-terminal) DiscoveRx kinase panel; settings: Compound concentration 1.0 uM
[29] = biological target: Alpha-2C adrenergic receptor (Homo sapiens, UniProt P18825); test: GPCRScan assay: inhibition of Alpha2C; parameters: radioligand conc. used [nm] 0.5 – 1.0, parental cells stable MDCK
Chain of Alpha-2C adrenergic receptor (P18825 whole entry): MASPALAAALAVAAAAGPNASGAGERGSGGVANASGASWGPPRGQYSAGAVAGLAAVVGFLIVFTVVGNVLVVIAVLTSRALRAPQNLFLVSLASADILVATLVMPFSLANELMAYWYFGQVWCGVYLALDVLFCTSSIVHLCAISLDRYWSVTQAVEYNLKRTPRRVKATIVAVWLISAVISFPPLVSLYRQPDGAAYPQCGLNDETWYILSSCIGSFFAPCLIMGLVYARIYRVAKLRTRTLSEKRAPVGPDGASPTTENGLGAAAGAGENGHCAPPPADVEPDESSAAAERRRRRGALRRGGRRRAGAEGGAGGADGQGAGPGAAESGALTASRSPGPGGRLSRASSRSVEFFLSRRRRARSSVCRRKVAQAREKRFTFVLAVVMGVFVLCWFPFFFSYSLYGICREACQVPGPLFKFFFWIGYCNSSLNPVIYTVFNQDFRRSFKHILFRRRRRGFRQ

[30] = biological target: Ephrin type-A receptor 8 (Homo sapiens) (UniProt P29322); test: EPHA8 DiscoveRx kinase panel; settings: Compound concentration 1.0 uM
[31] = biological target: Receptor-interacting serine/threonine-protein kinase 4 (Homo sapiens) (UniProt P57078); test: RIPK4 DiscoveRx kinase panel; settings: Compound concentration 1.0 uM
[32] = biological target: Prostaglandin G/H synthase 1 (Homo sapiens) (UniProt P23219); test: Inhibition of Cyclooxygenase COX-1 at compound concentration of 10.0 uM in the Eurofins-Panlabs enzyme assay (Eurofins_assay_116020); settings: Compound concentration 10.0 uM
[33] = biological target: Cyclin-dependent kinase 4/cyclin D1 (Homo sapiens) (UniProt P11802+P24385); test: CDK4-cyclinD1 DiscoveRx kinase panel; format: protein-complex assay; settings: Compound concentration 1.0 uM
[34] = biological target: Wee1-like protein kinase (Homo sapiens) (UniProt P30291); test: WEE1 DiscoveRx kinase panel; settings: Compound concentration 1.0 uM
Chain of Wee1-like protein kinase (Homo sapiens) (P30291 whole entry, looked up): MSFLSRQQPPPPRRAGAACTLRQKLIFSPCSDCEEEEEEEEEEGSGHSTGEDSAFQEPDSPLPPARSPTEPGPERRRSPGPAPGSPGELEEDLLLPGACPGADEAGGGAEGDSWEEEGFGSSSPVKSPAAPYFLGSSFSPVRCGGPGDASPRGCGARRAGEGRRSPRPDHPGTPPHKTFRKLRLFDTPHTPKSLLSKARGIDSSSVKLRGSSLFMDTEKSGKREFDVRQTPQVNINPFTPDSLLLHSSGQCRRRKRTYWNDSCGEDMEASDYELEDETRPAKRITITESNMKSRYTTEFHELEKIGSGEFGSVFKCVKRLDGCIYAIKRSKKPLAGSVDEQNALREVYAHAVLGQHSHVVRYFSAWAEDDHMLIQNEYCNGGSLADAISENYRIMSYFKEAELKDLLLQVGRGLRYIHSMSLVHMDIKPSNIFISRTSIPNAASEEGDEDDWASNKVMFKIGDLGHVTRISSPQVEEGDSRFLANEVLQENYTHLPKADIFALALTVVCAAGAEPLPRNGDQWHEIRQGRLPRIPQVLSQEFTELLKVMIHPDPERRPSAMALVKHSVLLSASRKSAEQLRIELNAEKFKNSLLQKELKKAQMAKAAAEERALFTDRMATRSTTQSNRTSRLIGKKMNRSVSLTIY

[35] = biological target: Protein kinase C theta type (Homo sapiens) (UniProt Q04759); test: PRKCQ DiscoveRx kinase panel; settings: Compound concentration 1.0 uM
[36] = biological target: Alpha-1A adrenergic receptor (Homo sapiens) (UniProt P35348); settings: Rattus norvegicus; Compound concentration 10.0 uM
[37] = biological target: Serine/threonine-protein kinase MAK (Homo sapiens) (UniProt P20794); test: MAK DiscoveRx kinase panel; settings: Compound concentration 1.0 uM
[38] = biological target: Protein kinase C iota type (Homo sapiens) (UniProt P41743); test: PRKCI DiscoveRx kinase panel; settings: Compound concentration 1.0 uM
[39] = biological target: Sodium-dependent dopamine transporter (Homo sapiens, UniProt Q01959); settings: Compound concentration 10.0 uM
[40] = biological target: Protein-tyrosine kinase 6 (Homo sapiens) (UniProt Q13882); test: BRK DiscoveRx kinase panel; settings: Compound concentration 1.0 uM
[41] = biological target: Ephrin type-B receptor 6 (Homo sapiens) (UniProt O15197); test: EPHB6 DiscoveRx kinase panel; settings: Compound concentration 1.0 uM
[42] = biological target: Serine/threonine-protein kinase DCLK2 (Homo sapiens) (UniProt Q8N568); test: DCAMKL2 DiscoveRx kinase panel; settings: Compound concentration 1.0 uM
Chain of Serine/threonine-protein kinase DCLK2 (Homo sapiens) (Q8N568 whole entry): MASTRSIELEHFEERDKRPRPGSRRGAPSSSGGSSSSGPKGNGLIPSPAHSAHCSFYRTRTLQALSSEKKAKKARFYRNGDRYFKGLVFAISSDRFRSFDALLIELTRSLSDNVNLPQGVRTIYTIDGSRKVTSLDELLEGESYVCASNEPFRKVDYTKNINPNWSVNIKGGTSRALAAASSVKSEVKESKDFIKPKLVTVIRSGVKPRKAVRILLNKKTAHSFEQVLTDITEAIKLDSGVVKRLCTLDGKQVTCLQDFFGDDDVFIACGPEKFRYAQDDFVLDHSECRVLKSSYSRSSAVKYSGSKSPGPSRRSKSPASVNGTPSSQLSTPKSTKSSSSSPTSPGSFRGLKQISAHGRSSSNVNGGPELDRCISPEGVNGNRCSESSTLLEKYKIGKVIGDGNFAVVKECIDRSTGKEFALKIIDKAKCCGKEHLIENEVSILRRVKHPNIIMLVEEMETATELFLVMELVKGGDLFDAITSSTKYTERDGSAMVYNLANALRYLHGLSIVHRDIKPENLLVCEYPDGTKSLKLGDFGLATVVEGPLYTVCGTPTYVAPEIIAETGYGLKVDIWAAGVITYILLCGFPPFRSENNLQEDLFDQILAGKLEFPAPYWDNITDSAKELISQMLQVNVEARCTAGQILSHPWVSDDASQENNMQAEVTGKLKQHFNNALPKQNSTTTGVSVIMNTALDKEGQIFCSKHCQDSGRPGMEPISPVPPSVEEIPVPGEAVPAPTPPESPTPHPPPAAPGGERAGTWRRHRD

MDA-MB-436 = test: MDA-MB-436 cell line Proliferation assay; format: functional, Homo sapiens; settings: time 4 day
[43] = biological target: voltage-gated sodium channel, site 2 (Rattus norvegicus, UniProt F1LQQ7+O08562+O88420+O88457+P04774+P04775+P08104+P15389+P15390+Q62968); test: Inhibition of Sodium Channel, Site 2 at 10 µM in the Eurofins-Panlabs radioligand binding assay (Eurofins_assay_279510); format: protein assay; parameters: ligand concentration 5 nM, non-specific ligand with concentration 100 µM Veratridine, incubation time 60 min, incubation temperature 37 °C; settings: male, Wistar, rat whole brain (except cerebellum) membranes, probe [3H] Batrachotoxinin, compound concentration 10 uM
[44] = biological target: Tyrosine-protein kinase ITK/TSK (Homo sapiens) (UniProt Q08881); test: ITK DiscoveRx kinase panel; settings: Compound concentration 1.0 uM

Structure (SMILES): COc1cnccc1Nc1nc(-c2nn(Cc3c(F)cc(OCCO)cc3F)c3ccccc23)ncc1OC
- residual activity [1]: 97%
- residual activity [2]: 100%
- inhibition [3]: 15.2%
- residual activity [4]: 78%
- residual activity [5]: 90%
- residual activity [6]: 87%
- residual activity [7]: 76%
- residual activity [8]: 91%
- residual activity [9]: 100%
- residual activity [10]: 79%
- inhibition [11]: -2%
- residual activity [12]: 100%
- inhibition [13]: 21%
- residual activity [14]: 83%
- residual activity [15]: 64%
- inhibition [16]: 10%
- inhibition [17]: -1%
- residual activity [18]: 100%
- residual activity [19]: 99%
- inhibition [20]: 4%
- inhibition [21]: 10%
- residual activity [22]: 96%
- residual activity [23]: 78%
- residual activity [24]: 100%
- residual activity [25]: 100%
- residual activity [26]: 85%
- inhibition [27]: 1.38%
- inhibition (Rattus norvegicus): 1%
- residual activity [28]: 100%
- Ki [29]: > 10 µM
- pKi [29]: < 5
- residual activity [30]: 100%
- residual activity [31]: 70%
- inhibition [32]: 54%
- residual activity [33]: 100%
- residual activity [34]: 100%
- residual activity [35]: 77%
- inhibition [36]: 8%
- residual activity [37]: 73%
- residual activity [38]: 87%
- inhibition [39]: 60.2%
- residual activity [40]: 91%
- residual activity [41]: 100%
- residual activity [42]: 90%
- Cell Proliferation IC50 (MDA-MB-436): 1.2 µM
- inhibition at 60 min, 10 µM [43]: 53%
- residual activity [44]: 100%
